Experimental findings from US20260265235A1, “BICYCLOAMINE CARBOXAMIDE DERIVATIVE” (Sumitomo Pharma Co., Ltd., priority 2022, published 2026) are described below.

In the assay the target is T1, Human orexin receptor type 2 (Homo sapiens, UniProt O43614).
T1 construct: expressed in transfected cells; host or cells: CHO cells (transient expression, with apoaequorin)
T1 sequence (O43614 1-444): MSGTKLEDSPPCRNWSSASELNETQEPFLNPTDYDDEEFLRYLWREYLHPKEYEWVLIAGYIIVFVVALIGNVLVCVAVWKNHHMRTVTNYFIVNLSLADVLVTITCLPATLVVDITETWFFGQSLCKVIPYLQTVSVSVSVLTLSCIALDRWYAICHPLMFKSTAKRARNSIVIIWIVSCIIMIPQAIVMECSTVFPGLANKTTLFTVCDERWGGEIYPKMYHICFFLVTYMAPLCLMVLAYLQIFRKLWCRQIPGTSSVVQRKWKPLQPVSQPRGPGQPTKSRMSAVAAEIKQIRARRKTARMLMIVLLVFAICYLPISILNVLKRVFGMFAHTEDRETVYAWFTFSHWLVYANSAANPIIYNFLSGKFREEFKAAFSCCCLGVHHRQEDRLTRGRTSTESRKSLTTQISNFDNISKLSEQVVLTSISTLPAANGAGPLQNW
In words: Test Example 2: agonist activity for orexin receptor type 2 (aequorin luminescence, intracellular calcium mobilization in CHO cells). The settings on record: compound 10 μM; relative percentage of luminescence for the luminescence (100%) of Orexin A (100 μM); CHO cells transiently expressing human orexin receptor type 2 and apoaequorin. It is filed as cell-based. As for the experimental part: Test Example 2: Measurement of Agonist Activity for Orexin Receptor Type 2
Human orexin receptor type 2 and apoaequorin were transiently expressed in CHO cells, and the agonist activity was evaluated based on intracellular calcium mobilization with ligand stimulation. The CHO cells transiently-expressed human orexin receptor type 2 and apoaequorin were seeded on a 384-well plate by 2,000 cells/well, and then incubated for 16-22 hours. After the plate was returned to room temperature, Coelenterazine hcp (final concentration: 1 μM) was added to the plate, and the plate was allowed to stand at room temperature for 2 hours. And then, Orexin A (PEPTIDE INSTITUTE, INC., Lot. 711101) or each test compound was added to the plate, and the luminescence of the cells was measured with FDSS7000 (Hamamatsu Photonics K.K.), wherein Orexin A and each test compound were dissolved in DMSO (final concentration: 0.1%), and diluted with a buffer (Hanks, 20 mM HEPES, 0.1% BSA). The agonist activity of each test compound for orexin receptor type 2 was calculated as relative percentage of luminescence for the luminescence (100%) of Orexin A (100 μM).
Each agonist activity of the compounds obtained in Examples (10 μM) for orexin receptor type 2 is shown in the table below as relative percentage of luminescence for the luminescence (100%) of Orexin A (100 μM).
(In general: Calcium flux is commonly read through the fluorescence of an indicator in the cells.)

As for `CC(C)N1CCN([C@H]2CCCC(F)(F)[C@@H]2NC(=O)N2C[C@@H]3CN(c4ccccc4F)C[C@@H]3C2)CC1` [Example 19, (3aR,6aS)—N-{(1R,6S)-2,2-difluoro-6-[4-(propan-2-yl)piperazin-1-yl]cyclohexyl}-5-(2-fluorophenyl)hexahydropyrrolo[3,4-c]pyrrole-2(1H)-carboxamide], the “Agonist Activity (%)” value is recorded as 390%.
On to `CC(C)N1CCN([C@H]2CCCC(F)(F)[C@@H]2NC(=O)N2C[C@@H]3CN(c4ccccn4)C[C@@H]3C2)CC1` [Example 20, (3aR,6aS)—N-{(1R,6S)-2,2-difluoro-6-[4-(propan-2-yl)piperazin-1-yl]cyclohexyl}-5-(pyridin-2-yl)hexahydropyrrolo[3,4-c]pyrrole-2(1H)-carboxamide], for which the “Agonist Activity (%)” value was found to be 345%.
As for `CC(C)N1CCN([C@H]2CCCC(F)(F)[C@@H]2NC(=O)N2C[C@@H]3CN(c4cccc(F)c4)C[C@@H]3C2)CC1` [Example 22, (3aR,6aS)—N-{(1R,6S)-2,2-difluoro-6-[4-(propan-2-yl)piperazin-1-yl]cyclohexyl}-5-(3-fluorophenyl)hexahydropyrrolo[3,4-c]pyrrole-2(1H)-carboxamide], the figure is 399%; as for `Cc1ccc(N2C[C@H]3CN(C(=O)N[C@@H]4[C@@H](N5CCN(C(C)C)CC5)CCCC4(F)F)C[C@H]3C2)cc1` [Example 23, (3aR,6aS)—N-{(1R,6S)-2,2-difluoro-6-[4-(propan-2-yl)piperazin-1-yl]cyclohexyl}-5-(4-methylphenyl)hexahydropyrrolo[3,4-c]pyrrole-2(1H)-carboxamide], 404%.
To `Cc1cccc([C@@H]2C[C@@H]3CN(C(=O)N[C@@H]4[C@@H](N5CCN(C(C)C)CC5)CCCC4(F)F)C[C@@H]3C2)c1` [Example 24, (3aR,5R,6aS)—N-{(1R,6S)-2,2-difluoro-6-[4-(propan-2-yl)piperazin-1-yl]cyclohexyl}-5-(3-methylphenyl)hexahydropenta[c]pyrrole-2(1H)-carboxamide] belongs 414%; to `CC(C)N1CCN([C@H]2CCCC(F)(F)[C@@H]2NC(=O)N2C[C@H]3C[C@@H](c4ccccn4)C[C@H]3C2)CC1` [Example 25, (3aR,5R,6aS)—N-{(1R,6S)-2,2-difluoro-6-[4-(propan-2-yl)piperazin-1-yl]cyclohexyl}-5-(pyridin-2-yl)hexahydropenta[c]pyrrole-2(1H)-carboxamide], 396%.
As for `CC(C)N1CCN([C@H]2CCCC(F)(F)[C@@H]2NC(=O)N2C[C@H]3C[C@@H](c4ncccn4)C[C@H]3C2)CC1` [Example 26, (3aR,5R,6aS)—N-{(1R,6S)-2,2-difluoro-6-[4-(propan-2-yl)piperazin-1-yl]cyclohexyl}-5-(pyrimidin-2-yl)hexahydropenta[c]pyrrole-2(1H)-carboxamide], the figure is 345%; as for `CC(C)N1CC[C@H](O[C@H]2CCCC(F)(F)[C@@H]2NC(=O)N2C[C@H]3CC(c4ccccc4)C[C@H]3C2)C1` (stereo partly drawn) [Example 28, (3aR,5R,6aS)—N-[(1R,6S)-2,2-difluoro-6-{[(3S)-1-(propan-2-yl)pyrrolidin-3-yl]oxy}cyclohexyl]-5-phenylhexahydropenta[c]pyrrole-2(1H)-carboxamide], 400%; as for `CC(C)N1CC[C@H](O[C@H]2CCCC(F)(F)[C@@H]2NC(=O)N2C[C@@H]3CN(c4ccccc4)C[C@@H]3C2)C1` [Example 29, (3aR,6aS)—N-[(1R,6S)-2,2-difluoro-6-{[(3S)-1-(propan-2-yl)pyrrolidin-3-yl]oxy}cyclohexyl]-5-phenylhexahydropyrrolo[3,4-c]pyrrole-2(1H)-carboxamide], 393%.
With `Cc1nc([C@@H]2C[C@@H]3CN(C(=O)N[C@@H]4[C@@H](N5CCN(C(C)C)CC5)CCCC4(F)F)C[C@@H]3C2)no1` [Example 30, (3aR,5R,6aS)—N-{(1R,6S)-2,2-difluoro-6-[4-(propan-2-yl)piperazin-1-yl]cyclohexyl}-5-(5-methyl-1,2,4-oxadiazol-3-yl)hexahydropenta[c]pyrrole-2(1H)-carboxamide], the “Agonist Activity (%)” value amounted to 374%.
As for `Cc1nc(C2C[C@@H]3CN(C(=O)N[C@@H]4[C@@H](N(C)[C@H]5CCN(C(C)C)C5)CCCC4(F)F)C[C@@H]3C2)no1` (stereo partly drawn) [Example 31, (3aR,5R,6aS)—N-[(1R,6S)-2,2-difluoro-6-{methyl[(3S)-1-(propan-2-yl)pyrrolidin-3-yl]amino}cyclohexyl]-5-(5-methyl-1,2,4-oxadiazol-3-yl)hexahydropenta[c]pyrrole-2(1H)-carboxamide], the “Agonist Activity (%)” value was 252%.
On to `Cc1nc(C2C[C@H]3CC(C(=O)N[C@@H]4[C@@H](O[C@H]5CCN(C(C)C)C5)CCCC4(F)F)C[C@H]3C2)no1` (stereo partly drawn) [Example 32, (3aR,5R,6aS)—N-[(1R,6S)-2,2-difluoro-6-{[(3S)-1-(propan-2-yl)pyrrolidin-3-yl]oxy}cyclohexyl]-5-(5-methyl-1,2,4-oxadiazol-3-yl)hexahydropenta[c]pyrrole-2(1H)-carboxamide], for which the “Agonist Activity (%)” value came to 345%.
In the case of `CC(C)N1CC[C@H](N(C)[C@H]2CCCC(F)(F)[C@@H]2NC(=O)N2C[C@H]3CC(c4ccccc4)C[C@H]3C2)C1` (stereo partly drawn) [Example 33, (3aR,5R,6aS)—N-[(1R,6S)-2,2-difluoro-6-{methyl[(3S)-1-(propan-2-yl)pyrrolidin-3-yl]amino}cyclohexyl]-5-phenylhexahydropenta[c]pyrrole-2(1H)-carboxamide], the “Agonist Activity (%)” value stood at 343%.
To `CC(C)N1CC[C@H](N(C)[C@H]2CCCC(F)(F)[C@@H]2NC(=O)N2C[C@@H]3CN(c4ccccc4)C[C@@H]3C2)C1` [Example 34, (3aR,6aS)—N-[(1R,6S)-2,2-difluoro-6-{methyl[(3S)-1-(propan-2-yl)pyrrolidin-3-yl]amino}cyclohexyl]-5-phenylhexahydropyrrolo[3,4-c]pyrrole-2(1H)-carboxamide] belongs 341%.
